Read-outs that look alike come from different tables or passages of the source.
Assays:
human M2 receptor [1] = target: T1, human M2 receptor (Homo sapiens, UniProt P08172); format: cell-based; settings: α >1 = positive cooperativity
T1 sequence (P08172 1-466): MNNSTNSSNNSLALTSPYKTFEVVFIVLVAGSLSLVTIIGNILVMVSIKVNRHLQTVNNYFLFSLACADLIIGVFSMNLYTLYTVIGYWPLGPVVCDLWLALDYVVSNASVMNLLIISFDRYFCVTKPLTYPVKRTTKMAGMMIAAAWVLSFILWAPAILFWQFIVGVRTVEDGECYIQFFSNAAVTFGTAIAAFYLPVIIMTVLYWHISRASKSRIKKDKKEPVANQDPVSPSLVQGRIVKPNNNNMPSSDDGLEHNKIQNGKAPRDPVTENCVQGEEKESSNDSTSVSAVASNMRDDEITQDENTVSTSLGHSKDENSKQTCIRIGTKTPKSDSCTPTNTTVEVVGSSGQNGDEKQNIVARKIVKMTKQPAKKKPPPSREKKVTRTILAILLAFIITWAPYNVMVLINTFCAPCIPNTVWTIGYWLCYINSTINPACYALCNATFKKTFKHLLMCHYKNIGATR

anaesthetized rats = assay: Effects on the heart rate in anaesthetized rats (B-9); format: in vivo, rat; settings: i.v. infusion via jugular vein over 5 min, dose not given, in some cases means of several determinations
Protocol: B-9. Effects of the Test Substances on the Heart Rate in Anaesthetized Rats
Male rats of the strain (WI) WU Br from the breeder Charles River are anaesthetized initially with a 4-5% isoflurane inhalation for approx. 3 min. Subsequently, anaesthesia is maintained using a 1.5% isoflurane inhalation. For this purpose, the anaesthetized animals are fixed on a heated operating plate. By means of visual inspection and between toe reflex, the depth of anaesthesia is checked.
For the application of the test substance, an i.v. route into the jugular vein is used. A caudal to cranial skin incision is then made longitudinally and both the cervical musculature and the salivary glands are severed. The right common carotid artery is exposed and blood supply is arrested both proximally and distally. Using microinstrumentation, a TIP catheter (1.2 F) is introduced into the vessel in order to measure the arterial pressure and the heart rate.
Initially, both parameters are monitored for 10 min in the basal state without substance addition. The substances to be investigated are dissolved in suitable solvent mixtures and subsequently administered at various dosages to a group of animals in each case via the jugular vein by an infusion pump over 5 min. A solvent-treated group is used as control under the same experimental conditions. The arterial blood pressure and heart rate with substance addition is determined for 20 min. The data are registered with the PowerLab system (AD instruments) and evaluated using the LabChart program (AD instruments).
The values determined in this manner for the percentage decrease in heart rate for individual working examples are given in Table 4 below (in some cases as means of a plurality of independent individual determinations): […]

human M2 receptor [2] = target: T1, human M2 receptor; settings: for Efficiency: boosting of the acetylcholine effect at EC20 acetylcholine concentration
[3] = shift of acetylcholine dose-response curve (Allosteric EC50 shift)
[4] = Receptor activity EC50, allosteric potency at EC20 acetylcholine, M2-GIRK1/4 reporter cells, in some cases mean of two or more determinations
[5] = shift in the acetylcholine dose-response curve (Allosteric EC50 shift, GraphPad PRISM)
[6] = Receptor activity EC50, M2-GIRK1/4 activation test, acetylcholine at EC20, allosteric potency, in some cases mean values from two or more determinations
[7] = read-out: Efficiency, boosting of the acetylcholine effect at EC20 acetylcholine concentration, M2-GIRK1/4 reporter cells

Cooperativity (alpha factor) (human M2 receptor [1]; [3]) | EC50 (human M2 receptor [2]; [4]) [nM] | Efficiency (human M2 receptor [2]; M2-GIRK1/4 reporter cells) [%] | Cooperativity (alpha factor) (human M2 receptor [1]; [5]) | EC50 (human M2 receptor [2]; [6]) [nM] | Emax (human M2 receptor [2]; [7]) [%] | Structure (SMILES) | Reduction in heart rate (%) (anaesthetized rats) | Emax (human M2 receptor [2]; read-out: Efficiency) [%]
31 | 7 | 92.2 | – | – | – | CC(NC(=O)c1cn(-c2c(F)cc(F)cc2F)c2nc(N3CCNC3=O)ccc2c1=O)C(F)(F)C(F)(F)F (racemic) [Example 541, 4-Oxo-7-(2-oxoimidazolidin-1-yl)-N-[3,3,4,4,4-pentafluorobutan-2-yl]-1-(2,4,6-trifluorophenyl)-1,4-dihydro-1,8-naphthyridine-3-carboxamide] | 14 | –
– | – | – | – | 61 | – | O=C(N[C@@H](C1CC1)C(F)(F)F)c1cn(-c2ccc(F)cc2F)c2nc(N3C[C@@H](O)CC3=O)ccc2c1=O (single isomer, unassigned) [Example 284] | 11 | –
– | – | – | 49 | 28 | – | O=C(N[C@H](C1CC1)C(F)(F)F)c1cn(-c2c(F)cccc2F)c2nc(N3C[C@@H](O)CC3=O)ccc2c1=O (single isomer, unassigned) [Example 296] | 11 | –
– | – | – | 47 | 37 | – | O=C(N[C@@H](C1CC1)C(F)(F)F)c1cn(-c2c(F)cccc2F)c2nc(N3C[C@@H](O)CC3=O)ccc2c1=O (single isomer, unassigned) [Example 297] | 10 | –
32 | 5 | 100.0 | – | – | – | CC[C@H](NC(=O)c1cn(-c2c(F)cc(F)cc2Cl)c2nc(N3C[C@@H](O)CC3=O)ccc2c1=O)C(F)(F)F (single isomer, unassigned) [Example 400] | 11 | –
36 | 2 | – | – | – | 100 | CCC(NC(=O)c1cn(-c2c(F)cc(F)cc2F)c2nc(N3C[C@@H](O)CC3=O)ccc2c1=O)C(F)(F)C(F)(F)F (single isomer, unassigned) [Example 520] | 15 | –
44 | 6 | – | – | – | 98.7 | CC(NC(=O)c1cn(-c2c(F)cc(F)cc2F)c2nc(N3C[C@@H](O)CC3=O)ccc2c1=O)C(F)(F)C(F)(F)F (single isomer, unassigned) [Example 530] | 13 | –
60 | 22 | – | – | – | 100 | COC(=O)[C@@H]1CN(c2ccc3c(=O)c(C(=O)N[C@@H](C4CC4)C(F)(F)F)cn(-c4c(F)cc(F)cc4F)c3n2)C(=O)O1 [Example 666, Methyl (5S)-3-[6-{[(1S)-1-cyclopropyl-2,2,2-trifluoroethyl]carbamoyl}-5-oxo-8-(2,4,6-trifluorophenyl)-5,8-dihydro-1,8-naphthyridin-2-yl]-2-oxo-1,3-oxazolidine-5-carboxylate] | – | –

More lines, now with the values behind:

Structure (SMILES) | Cooperativity (alpha factor) (human M2 receptor [1]; [3]) | EC50 (human M2 receptor [2]; [4]) [nM] | Efficiency (human M2 receptor [2]; M2-GIRK1/4 reporter cells) [%] | Cooperativity (alpha factor) (human M2 receptor [1]; [5]) | EC50 (human M2 receptor [2]; [6]) [nM] | Emax (human M2 receptor [2]; [7]) [%] | Reduction in heart rate (%) (anaesthetized rats) | Emax (human M2 receptor [2]; read-out: Efficiency) [%]
O=C(NC(c1ccccc1Cl)C(F)(F)F)c1cn(-c2ccc(F)cc2F)c2nc(N3C[C@@H](O)CC3=O)ccc2c1=O (single isomer, unassigned) [Example 212] | – | – | – | 54 | 41 | – | 11 | –
O=C(NC(c1ccccc1Cl)C(F)(F)F)c1cn(-c2ccc(F)cc2F)c2nc(N3C[C@@H](O)CC3=O)ccc2c1=O (single isomer, unassigned) [Example 213] | – | – | – | 55 | 19 | – | 14 | –
CCC(NC(=O)c1cn(-c2c(F)cc(F)cc2F)c2nc(N3C[C@@H](O)[C@H](O)C3)ccc2c1=O)C(F)(F)C(F)(F)F (single isomer, unassigned) [Example 523] | 41 | – | – | – | – | – | 15 | 100
CC(NC(=O)c1cn(-c2c(F)cc(F)cc2F)c2nc(N3C[C@@H](O)[C@H](O)C3)ccc2c1=O)C(F)(F)C(F)(F)F (single isomer, unassigned) [Example 550] | 34 | – | – | – | – | – | 13 | 100
CC[C@@H](NC(=O)c1cn(-c2ccc(F)cc2F)c2nc(N3CC4C(C3)C4(F)F)ccc2c1=O)C(F)(F)F (stereo partly drawn) [Example 28, 7-(6,6-Difluoro-3-azabicyclo[3.1.0]hex-3-yl)-1-(2,4-difluorophenyl)-4-oxo-N-[(2R)-1,1,1-trifluorobutan-2-yl]-1,4-dihydro-1,8-naphthyridine-3-carboxamide] | – | – | – | 25 | 23 | – | 9 | –
CC[C@H](NC(=O)c1cn(-c2ccc(F)cc2F)c2nc(N3C[C@@H](O)CC3=O)ccc2c1=O)C(F)(F)F [Example 174, 1-(2,4-Difluorophenyl)-7-[(4S)-4-hydroxy-2-oxopyrrolidin-yl]-4-oxo-N-[(2S)-1,1,1-trifluorobutan-2-yl]-1,4-dihydro-1,8-naphthyridine-3-carboxamide] | – | – | – | – | 113 | – | 7 | 98.6
CC[C@@H](NC(=O)c1cn(-c2ccc(F)cc2F)c2nc(N3CC[C@H](F)C3)ccc2c1=O)C(F)(F)F [Example 189, 1-(2,4-Difluorophenyl)-7-[(3S)-3-fluoropyrrolidin-1-yl]-4-oxo-N-[(2R)-1,1,1-trifluorobutan-2-yl]-1,4-dihydro-1,8-naphthyridine-3-carboxamide] | – | – | – | 24 | 23 | – | 7 | –
O=C(Nc1c(Cl)cccc1Cl)c1cn(-c2ccc(F)cc2F)c2nc(N3C[C@@H](O)CC3=O)ccc2c1=O [Example 201, N-(2,6-Dichlorophenyl)-1-(2,4-difluorophenyl)-7-[(4S)-4-hydroxy-2-oxopyrrolidin-1-yl]-4-oxo-1,4-dihydro-1,8-naphthyridine-3-carboxamide] | – | – | – | 39 | 39 | – | 6 | –
O=C(N[C@H](C1CC1)C(F)(F)F)c1cn(-c2ccc(F)cc2F)c2nc(N3C[C@@H](O)CC3=O)ccc2c1=O [Example 271, N-[(1R)-1-Cyclopropyl-2,2,2-trifluoroethyl]-1-(2,4-difluorophenyl)-7-[(4S)-4-hydroxy-2-oxopyrrolidin-1-yl]-4-oxo-1,4-dihydro-1,8-naphthyridine-3-carboxamide] | – | – | – | 43 | 40 | – | 8 | –
CC[C@@H](NC(=O)c1cn(-c2c(F)cccc2F)c2nc(N3C[C@@H](O)CC3=O)ccc2c1=O)C(F)(F)F [Example 275, 1-(2,6-Difluorophenyl)-7-[(4S)-4-hydroxy-2-oxopyrrolidin-1-yl]-4-oxo-N-[(2R)-1,1,1-trifluorobutan-2-yl]-1,4-dihydro-1,8-naphthyridine-3-carboxamide] | – | – | – | 38 | 18 | – | 9 | 92.8
CC[C@@H](NC(=O)c1cn(-c2c(F)cc(F)cc2F)c2nc(N3C[C@@H](O)CC3=O)ccc2c1=O)C(F)(F)F [Example 325, 7-[(4S)-4-Hydroxy-2-oxopyrrolidin-1-yl]-4-oxo-N-[(2R)-1,1,1-trifluorobutan-2-yl]-1-(2,4,6-trifluorophenyl)-1,4-dihydro-1,8-naphthyridine-3-carboxamide] | – | – | – | 56 | 7 | – | 13 | 93

Reference: patent US20190367516A1 (Bayer Pharma Aktiengesellschaft, priority 2015, published 2019)
